From US11679108B2, “Aromatic heterocyclic compound, and pharmaceutical composition and use thereof” (GUANGZHOU HENOVCOM BIOSCIENCE CO., LTD., priority 2018, dated 2023)

Each compound was assayed against T1, ATX in human plasma (Homo sapiens, UniProt Q13822) (assay: Analysis in vitro: detection of LPA in human plasma for screening activity (LPA 18:2 by LC/MS/MS)). Conditions: incubated 2 hours at 37° C., LPA 18:2 detected by LC/MS/MS.
T1 construct: blank plasma was derived from at least 6 individual people; from tissue; host or cells: human plasma (pooled from at least 6 individuals)
Format: biochemical
Source text: Analysis In Vitro: Detection of LPA in Human Plasma for Screening Activity
Principle: LPC in plasma being used as a substrate, the produced LPA 18:2 (LPA 17:0 as an internal standard) is detected by LC/MS/MS quantitative analysis. At different concentrations of the compounds to be tested, the percentage of residual activity is obtained by the ratio of the production of LPA18:2 to that in the absence of the compounds to be tested, thereby calculating IC50 values.
Experiment procedures: blank plasma was derived from at least 6 individual people. The compounds to be tested were diluted from stock solution in 3-fold dilution gradient, to produce 8 concentrations of working solution (with zero) in series. 10 μL of the melting blank plasma samples were taken and iced methanol solution containing internal standard (LPA 17:0) was added to it, so that the mixture directedly performed protein precipitation, which served as a system control sample. 2 μL of the working solution in different concentration was taken and 198 μL of blank human plasma was added, which was incubated with a concentration of 0 to 10 μM. The samples were placed at an incubater containing 5% CO2 at 37° C., and incubated for 2 hours. When the incubation was completed, 10 μL of plasma sample was taken and appropriate volume of iced methanol solution containing internal standard (LPA 17:0) was added into it, so that the mixture directedly performed protein precipitation. The precipitation was centrifuged to take supernatant. LPA 18:2 was detected by LC/MS/MS and IC50 values were analyzed and calculated by software, seeing Table 2.

Compared with CCc1nc2sc(N3CCN(CC(=O)N4CC(O)C4)[C@H](C)C3)nn2c1N(C)c1nc(-c2ccc(F)cc2)c(C#N)s1 [Example 69, (R)-2-{[6-ethyl-2-(4-(2-(3-hydroxyazetidin-1-yl)-2-oxoethyl)-3-methylpiperazin-1-yl)imidazo[2,1-b][1,3,4]thiadiazol-5-yl](methyl)amino}-4-(4-fluorophenyl)thiazole-5-carbonitrile], CCc1nc2sc(N3CCN(CC(=O)N4CC(O)C4)[C@@H](C)C3)nn2c1N(C)c1nc(-c2ccc(F)cc2)c(C#N)s1 [Example 68, (S)-2-{[6-ethyl-2-(4-(2-(3-hydroxyazetidin-1-yl)-2-oxoethyl)-3-methylpiperazin-1-yl)imidazo[2,1-b][1,3,4]thiadiazol-5-yl](methyl)amino}-4-(4-fluorophenyl)thiazole-5-carbonitrile] is lower in IC50: 100 to 500 nM for the first, 0.01 to 100 nM for the second.

CCc1nc2sc(N3CCC(NC(=O)N4CC(O)C4)C3)nn2c1N(C)c1nc(-c2ccc(F)cc2)c(C#N)s1 (centres unmarked) [Example 64, N-{1-[5-((5-cyano-4-(4-fluorophenyl)thiazol-2-yl)(methyl)amino)-6-ethylimidazo[2,1-b][1,3,4]thiadiazol-2-yl]pyrrolidin-3-yl}-3-hydroxyazadetin-1-carboxamide] and CCc1nc2sc(N3CC[C@@H](NCC(=O)N4CC(O)C4)C3)nn2c1N(C)c1nc(-c2ccc(F)cc2)c(C#N)s1 [Example 80, (R)-2-{[6-ethyl-2-(3-((2-(3-hydroxyazetidin-1-yl)-2-oxoethyl)amino)pyrrolidin-1-yl)imidazo[2,1-b][1,3,4]thiadiazol-5-yl](methyl)amino}-4-(4-fluorophenyl)thiazol-5-carbonitrile] fall in the same range of IC50: 0.01 to 100 nM for the first, 0.01 to 100 nM for the second.

CCc1nc2sc(N3CCC4(CN(CC(=O)N5CC(C#N)C5)C4)C3)nn2c1N(C)c1nc(-c2ccc(F)cc2)c(C#N)s1 [Example 55, 2-{[6-ethyl-2-(2-(2-(3-cyanoazetidin-1-yl)-2-oxoethyl)-2,6-diazaspiro[3.4]octane-6-yl)imidazo[2,1-b][1,3,4]thiadiazol-5-yl](methyl)amino}-4-(4-fluorophenyl)thiazole-5-carbonitrile] and CCc1nc2sc(N3CC4(CCN(CC(=O)N5CC(O)C5)C4)C3)nn2c1N(C)c1nc(-c2ccc(F)cc2)c(C#N)s1 [Example 52, 2-{[6-ethyl-2-(6-(2-(3-hydroxyazetidin-1-yl)-2-oxoethyl)-2,6-diazaspiro[3.4]octan-2-yl)imidazo[2,1-b][1,3,4]thiadiazol-5-yl](methyl)amino}-4-(4-fluorophenyl)thiazole-5-carbonitrile] fall in the same range of IC50: 100 to 500 nM for the first, 100 to 500 nM for the second.

CCc1nc2sc(N3CC4(CN(C(N)=O)C4)C3)nn2c1N(C)c1nc(-c2ccc(F)cc2)c(C#N)s1 [Example 9, 6-{5-[(5-cyano-4-(4-fluorophenyl)thiazol-2-yl)(methyl)amino]-6-ethylimidazo[2,1-b][1,3,4]thiadiazol-2-yl}-2,6-diazaspiro[3.3]heptane-2-carboxamide] and CCc1nc2sc(N3CCN(C(N)=O)CC3)nn2c1N(C)c1nc(-c2ccc(F)cc2)c(C#N)s1 [Example 7, 4-{5-[(5-cyano-4-(4-fluorophenyl)thiazol-2-yl)(methyl)amino]-6-ethylimidazo[2,1-b][1,3,4]thiadiazol-2-yl}piperazine-1-carboxamide] fall in the same range of IC50: 500 to 1000 nM for the first, 500 to 1000 nM for the second.

Compared with CCc1nc2sc(N3CCN(CC(=O)N4CC(O)C4)C(C)C3C)nn2c1N(C)c1nc(-c2ccc(F)cc2)c(C#N)s1 (centres unmarked) [Example 77, 2-{[6-ethyl-2-(4-(2-(3-hydroxyazetidin-1-yl)-2-oxoethyl)-2,3-dimethylpiperazin-1-yl)imidazo[2,1-b][1,3,4]thiadiazol-5-yl](methyl)amino}-4-(4-fluorophenyl)thiazole-5-carbonitrile], CCc1nc2sc(N3C[C@@H](C)N(CC(=O)N4CC(O)C4)C[C@H]3C)nn2c1N(C)c1nc(-c2ccc(F)cc2)c(C#N)s1 [Example 75, 2-{[6-ethyl-2-((2R,5R)-4-(2-(3-hydroxyazetidin-1-yl)-2-oxoethyl)-2,5-dimethylpiperazin-1-yl)imidazo[2,1-b][1,3,4]thiadiazol-5-yl](methyl)amino}-4-(4-fluorophenyl)thiazole-5-carbonitrile] is higher in IC50: 0.01 to 100 nM for the first, 100 to 500 nM for the second.

CCc1nc2sc(N3CCC(C(=O)N4CC(O)C4)CC3)nn2c1N(C)c1nc(-c2ccc(F)cc2)c(C#N)s1 [Example 79, 2-{[6-ethyl-2-(4-(3-hydroxyazetidin-1-carbonyl)piperidin-1-yl)imidazo[2,1-b][1,3,4]thiadiazol-5-yl](methyl)amino}-4-(4-fluorophenyl)thiazole-5-carbonitrile] and CCc1nc2sc(N3CC4CCC(C3)N4CC(=O)N3CC(O)C3)nn2c1N(C)c1nc(-c2ccc(F)cc2)c(C#N)s1 [Example 70, 2-{[6-ethyl-2-(8-(2-(3-hydroxyazetidin-1-yl)-2-oxoethyl)-3,8-diazabicyclo[3.2.1]octan-3-yl)imidazo[2,1-b][1,3,4]thiadiazol-5-yl](methyl)amino}-4-(4-fluorophenyl)thiazole-5-carbonitrile] fall in the same range of IC50: 100 to 500 nM for the first, 100 to 500 nM for the second.

CCc1nc2sc(N3CC4CC(C3)N4CC(=O)N3CC(O)C3)nn2c1N(C)c1nc(-c2ccc(F)cc2)c(C#N)s1 [Example 61, 2-{[6-ethyl-2-(6-(2-(3-hydroxyazetidin-1-yl)-2-oxoethyl)-3,6-diazabicyclo[3.1.1]heptan-3-yl)imidazo[2,1-b][1,3,4]thiadiazol-5-yl](methyl)amino}-4-(4-fluorophenyl)thiazole-5-carbonitrile] and CCc1nc2sc(N3C[C@H](C)N(CC(=O)N4CC(O)C4)[C@@H](C)C3)nn2c1N(C)c1nc(-c2ccc(F)cc2)c(C#N)s1 (relative stereo) [Example 73, trans-2-{[6-ethyl-2-(4-(2-(3-hydroxyazetidin-1-yl)-2-oxoethyl)-3,5-dimethylpiperazin-1-yl)imidazo[2,1-b][1,3,4]thiadiazol-5-yl](methyl)amino}-4-(4-fluorophenyl)thiazole-5-carbonitrile] fall in the same range of IC50: 100 to 500 nM for the first, 100 to 500 nM for the second.

CCc1nc2sc(N3CC4CN(CC(=O)N5CC(C#N)C5)CC4C3)nn2c1N(C)c1nc(-c2ccc(F)cc2)c(C#N)s1 (centres unmarked) [Example 57, 2-{[6-ethyl-2-(5-(2-(3-cyanoazetidin-1-yl)-2-oxoethyl)hexahydropyrrolo[3,4-c]pyrrol-2(1H)-yl)imidazo[2,1-b][1,3,4]thiadiazol-5-yl](methyl)amino}-4-(4-fluorophenyl)thiazole-5-carbonitrile] and CCc1nc2sc(N3CC4CCN(CC(=O)N5CC(O)C5)C4C3)nn2c1N(C)c1nc(-c2ccc(F)cc2)c(C#N)s1 (centres unmarked) [Example 62, 2-{[6-ethyl-2-(1-(2-(3-hydroxyazetidin-1-yl)-2-oxoethyl)hexahydropyrrolo[3,4-b]pyrrol-5(1H)-yl)imidazo[2,1-b][1,3,4]thiadiazol-5-yl](methyl)amino}-4-(4-fluorophenyl)thiazole-5-carbonitrile] fall in the same range of IC50: 100 to 500 nM for the first, 100 to 500 nM for the second.

CCc1nc2sc(N3CCC(N(C)CC(=O)NCC(=O)OC)C3)nn2c1N(C)c1nc(-c2ccc(F)cc2)c(C#N)s1 (centres unmarked) [Example 50] and CCOC(=O)CN(C)C1CCN(c2nn3c(N(C)c4nc(-c5ccc(F)cc5)c(C#N)s4)c(CC)nc3s2)C1 (centres unmarked) [Example 48] fall in the same range of IC50: 100 to 500 nM for the first, 100 to 500 nM for the second.

CCc1nc2sc(N3CCN(CC(=O)N4CC(O)C4)C[C@@H]3C)nn2c1N(C)c1nc(-c2ccc(F)cc2)c(C#N)s1 [Example 67, (S)-2-{[6-ethyl-2-(4-(2-(3-hydroxyazetidin-1-yl)-2-oxoethyl)-2-methylpiperazin-1-yl)imidazo[2,1-b][1,3,4]thiadiazol-5-yl](methyl)amino}-4-(4-fluorophenyl)thiazole-5-carbonitrile] and CCc1nc2sc(N3C[C@H](C)N(CC(=O)N4CC(O)C4)C[C@@H]3C)nn2c1N(C)c1nc(-c2ccc(F)cc2)c(C#N)s1 [Example 74, 2-{[6-ethyl-2-((2S,5S)-4-(2-(3-hydroxyazetidin-1-yl)-2-oxoethyl)-2,5-dimethylpiperazin-1-yl)imidazo[2,1-b][1,3,4]thiadiazol-5-yl](methyl)amino}-4-(4-fluorophenyl)thiazole-5-carbonitrile] fall in the same range of IC50: 0.01 to 100 nM for the first, 0.01 to 100 nM for the second.

CCc1nc2sc(N3CC4CC3CO4)nn2c1N(C)c1nc(-c2ccc(F)cc2)c(C#N)s1 (centres unmarked) [Example 60, 2-{[2-(2-oxa-5-azabicyclo[2.2.1]heptan-5-yl)-6-ethylimidazo[2,1-b][1,3,4]thiadiazol-5-yl](methyl)amino}-4-(4-fluorophenyl)thiazole-5-carbonitrile] and CCc1nc2sc(N3CCC(N(C)CC(=O)O)C3)nn2c1N(C)c1nc(-c2ccc(F)cc2)c(C#N)s1 (centres unmarked) [Example 49, 2-{[1-(5-((5-cyano-4-(4-fluorophenyl)thiazol-2-yl)(methyl)amino)-6-ethylimidazo[2,1-b][1,3,4]thiadiazol-2-yl)pyrrolidin-3-yl](methyl)amino}acetic acid] cannot be ordered by IC50: no less than 1000 nM for the first, 500 to 1000 nM for the second.

With CCc1nc2sc(N3CCN(CC(=O)N4CC(O)C4)C(C)(C)C3)nn2c1N(C)c1nc(-c2ccc(F)cc2)c(C#N)s1 [Example 65, 2-{[6-ethyl-2-(4-(2-(3-hydroxyazetidin-1-yl)-2-oxoethyl)-3,3-dimethylpiperazin-1-yl)imidazo[2,1-b][1,3,4]thiadiazol-5-yl](methyl)amino}-4-(4-fluorophenyl)thiazole-5-carbonitrile] the IC50 was 0.01 to 100 nM.
